Laboratory results taken from ChEMBL document CHEMBL1201862, “PubChem BioAssay data set” (2004).
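These data come from cells grown in 96-well plates and exposed to compound for 48 hours at five concentrations. The concentration for 50% growth inhibition is given as GI50.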 The source made the active and inactive calls. No stated cut-off is given here; in the data, active = GI50 up to about 1.1 µM and inactive = higher. Where a SMILES comes first, the peptide text is derived from it. [ ]: non-standard residue; d: D form. pGlu = O=C1CC[CH](C(=O)O)N1

How the values were obtained:
Test in all cases: NCI tumour cell line growth inhibition, 48 h
A498 = test system: A498
CAKI-1 = test system: CAKI-1
HCT-15 = test system: HCT-15
HL-60 = test system: HL-60
HOP-62 = test system: HOP-62
IGROV-1 = test system: IGROV-1
LXFL 529 = test system: LXFL 529
MOLT-4 = test system: MOLT-4
OVCAR-8 = test system: OVCAR-8
SF-268 = test system: SF-268
SK-OV-3 = test system: SK-OV-3
SNB-19 = test system: SNB-19
SNB-75 = test system: SNB-75
TK-10 = test system: TK-10
UACC-62 = test system: UACC-62
HCC 2998 = test system: HCC 2998
MDA-MB-231 = test system: MDA-MB-231
MDA-N = test system: MDA-N
Malme-3M = test system: Malme-3M
MDA-MB-435 = test system: MDA-MB-435

SMILES | GI50 (A498) | GI50 (CAKI-1) | GI50 (HCT-15) [µM] | GI50 (HL-60) | GI50 (HOP-62) | GI50 (IGROV-1) | GI50 (LXFL 529) | GI50 (MOLT-4) | GI50 (OVCAR-8) | GI50 (SF-268) | GI50 (SK-OV-3) | GI50 (SNB-19) | GI50 (SNB-75) | GI50 (TK-10) | GI50 (UACC-62) | GI50 (HCC 2998) | GI50 (MDA-MB-231) | GI50 (MDA-N) | GI50 (Malme-3M) | GI50 (MDA-MB-435)
CC(C)=NNC(=S)NC12CC3CC(CC(C3)C1)C2 | > 100 µM (inactive) | > 100 µM (inactive) | > 100 | > 100 µM (inactive) | > 100 µM (inactive) | > 100 µM (inactive) | > 100 µM (inactive) | > 100 µM (inactive) | > 100 µM (inactive) | > 100 µM (inactive) | > 100 µM (inactive) | > 100 µM (inactive) | > 100 µM (inactive) | > 100 µM (inactive) | > 100 µM (inactive) | – | – | – | – | –
Cn1c2c(c3ccccc31)CCN(CCN1CCN(c3ccccc3)CC1)C2=O | – | > 100 µM (inactive) | > 100 | > 100 µM (inactive) | – | > 100 µM (inactive) | > 100 µM (inactive) | > 100 µM (inactive) | > 100 µM (inactive) | > 100 µM (inactive) | > 100 µM (inactive) | – | – | > 100 µM (inactive) | > 100 µM (inactive) | – | – | – | – | –
CCCCCCCCCCCCC(=O)OC(c1cnco1)c1nc(C(O)CC(O)C(O)C(C)O)co1 (stereo not given) | 20.9 µM (inactive) | 0.265 µM (active) | 9.44 | 0.849 µM (active) | 2.65 µM (inactive) | 0.339 µM (active) | 0.238 µM (active) | 0.144 µM (active) | 0.299 µM (active) | 0.333 µM (active) | 3.94 µM (inactive) | 11.3 µM (inactive) | 0.581 µM (active) | 5.62 µM (inactive) | 0.341 µM (active) | 1.31 µM (inactive) | 1.89 µM (inactive) | 1.95 µM (inactive) | 0.828 µM (active) | –
C=C1CC(C/C=C(\C)CC2CC(=C)C(=O)O2)OC1=O (stereo not given) | > 100 µM (inactive) | > 100 µM (inactive) | > 100 | > 100 µM (inactive) | > 100 µM (inactive) | > 100 µM (inactive) | > 100 µM (inactive) | > 100 µM (inactive) | > 100 µM (inactive) | > 100 µM (inactive) | > 100 µM (inactive) | > 100 µM (inactive) | > 100 µM (inactive) | > 100 µM (inactive) | > 100 µM (inactive) | > 100 µM (inactive) | – | – | > 100 µM (inactive) | –
Cc1ccc(S(=O)OCC23CC4CC(CC(C4)C2)C3)cc1 (stereo not given) | > 100 µM (inactive) | > 100 µM (inactive) | > 100 | > 100 µM (inactive) | > 100 µM (inactive) | > 100 µM (inactive) | > 100 µM (inactive) | > 100 µM (inactive) | > 100 µM (inactive) | > 100 µM (inactive) | > 100 µM (inactive) | > 100 µM (inactive) | > 100 µM (inactive) | > 100 µM (inactive) | > 100 µM (inactive) | > 100 µM (inactive) | – | – | > 100 µM (inactive) | –
c1ccc(SC2CCSc3ccccc3C2Sc2ccccc2)cc1 (stereo not given) | > 100 µM (inactive) | 22.8 µM (inactive) | > 100 | 4.73 µM (inactive) | > 100 µM (inactive) | > 10 µM (inactive) | > 100 µM (inactive) | > 100 µM (inactive) | > 100 µM (inactive) | > 100 µM (inactive) | > 10 µM (inactive) | 94.4 µM (inactive) | 19.8 µM (inactive) | > 100 µM (inactive) | > 10 µM (inactive) | > 100 µM (inactive) | – | – | – | –
NS(=O)(=O)c1ccc(NC(=O)CC(=O)Nc2ccc(S(N)(=O)=O)cc2)cc1 | > 100 µM (inactive) | > 100 µM (inactive) | > 100 | > 100 µM (inactive) | > 100 µM (inactive) | > 100 µM (inactive) | > 100 µM (inactive) | > 100 µM (inactive) | > 100 µM (inactive) | > 100 µM (inactive) | > 100 µM (inactive) | > 100 µM (inactive) | > 100 µM (inactive) | > 100 µM (inactive) | > 100 µM (inactive) | > 100 µM (inactive) | – | – | > 100 µM (inactive) | –
CCN(CC)CC(=O)Nc1ccc2c(c1)C(=O)c1ccc(NC(=O)CN(CC)CC)cc1C2=O | 12.9 µM (inactive) | 70.1 µM (inactive) | 36.4 | 18.8 µM (inactive) | 20.3 µM (inactive) | 17.7 µM (inactive) | 22.8 µM (inactive) | 17.8 µM (inactive) | 29.5 µM (inactive) | 23.1 µM (inactive) | 22.9 µM (inactive) | 23.8 µM (inactive) | 25.7 µM (inactive) | 43 µM (inactive) | 73.8 µM (inactive) | > 100 µM (inactive) | – | – | – | –
O=C1C2c3[nH]c4ccccc4c3C3CCC(c4ccccc4)CC3C2C(=O)N1c1ccccc1 (stereo not given) | > 10 µM (inactive) | – | > 100 | 24.3 µM (inactive) | – | > 100 µM (inactive) | > 100 µM (inactive) | 83.8 µM (inactive) | > 100 µM (inactive) | > 100 µM (inactive) | > 100 µM (inactive) | > 100 µM (inactive) | 27.3 µM (inactive) | > 100 µM (inactive) | > 100 µM (inactive) | > 100 µM (inactive) | – | – | 36.8 µM (inactive) | –
COc1cc(CNc2nc3c(N)cc(C(F)(F)F)cc3nc2-c2ccccc2)cc(OC)c1OC | 61.9 µM (inactive) | > 10 µM (inactive) | 14.9 | > 10 µM (inactive) | 39.5 µM (inactive) | > 10 µM (inactive) | 25.6 µM (inactive) | 8.83 µM (inactive) | 71.1 µM (inactive) | 50.8 µM (inactive) | > 10 µM (inactive) | > 10 µM (inactive) | 89.3 µM (inactive) | > 10 µM (inactive) | 35.2 µM (inactive) | 40.6 µM (inactive) | – | – | 40 µM (inactive) | –
CCN(CC)CCNC(=O)c1ccc(C)c(OCc2ccccc2)c1[N+](=O)[O-] | 50 µM (inactive) | 20.7 µM (inactive) | 21 | 19.5 µM (inactive) | 28.6 µM (inactive) | 62.8 µM (inactive) | 18 µM (inactive) | 28.7 µM (inactive) | > 100 µM (inactive) | 63.2 µM (inactive) | 34.2 µM (inactive) | > 80.7 µM (inactive) | 18 µM (inactive) | 61.2 µM (inactive) | 20.7 µM (inactive) | 28.8 µM (inactive) | 35.6 µM (inactive) | 19.9 µM (inactive) | 16.9 µM (inactive) | –
O=C(CCc1nnc(S)[nH]1)Nc1ccc(Cl)c(Cl)c1 | > 100 µM (inactive) | > 100 µM (inactive) | 6.25 | 82.4 µM (inactive) | 20 µM (inactive) | 26.5 µM (inactive) | 13.2 µM (inactive) | 45.8 µM (inactive) | > 100 µM (inactive) | 42.8 µM (inactive) | > 100 µM (inactive) | > 100 µM (inactive) | 20 µM (inactive) | 79.4 µM (inactive) | 2.98 µM (inactive) | – | – | – | > 100 µM (inactive) | –
O=C1NC(=O)C(C(=O)C(=O)Nc2ccc(Br)cc2)C(=O)N1 | > 100 µM (inactive) | – | > 100 | > 100 µM (inactive) | – | > 100 µM (inactive) | > 100 µM (inactive) | > 100 µM (inactive) | > 100 µM (inactive) | > 100 µM (inactive) | > 100 µM (inactive) | > 100 µM (inactive) | 12.1 µM (inactive) | – | > 100 µM (inactive) | > 100 µM (inactive) | – | – | > 100 µM (inactive) | –
CC[n+]1c(/C=C/c2ccc(N(CCCl)CCCl)cc2)ccc2cc(Br)ccc21 | 1310 µM (inactive) | 2.62 µM (inactive) | 14.9 | 0.246 µM (active) | 3.43 µM (inactive) | 0.574 µM (active) | 0.67 µM (active) | 1.46 µM (inactive) | 1.86 µM (inactive) | 1.61 µM (inactive) | 2.23 µM (inactive) | 1.22 µM (inactive) | 0.312 µM (active) | 4.48 µM (inactive) | 1.19 µM (inactive) | 1.38 µM (inactive) | – | – | 1.13 µM (inactive) | –
C[C@]12CC[C@@H]3c4ccc(O)cc4CC[C@H]3[C@@H]1CC[C@@H]2OP(=O)(O)O | > 100 µM (inactive) | > 100 µM (inactive) | > 100 | > 100 µM (inactive) | > 100 µM (inactive) | > 100 µM (inactive) | – | > 100 µM (inactive) | > 100 µM (inactive) | > 100 µM (inactive) | > 100 µM (inactive) | > 100 µM (inactive) | > 100 µM (inactive) | > 100 µM (inactive) | > 100 µM (inactive) | > 100 µM (inactive) | > 100 µM (inactive) | > 100 µM (inactive) | > 100 µM (inactive) | > 100 µM (inactive)
C=CC[P@]1(=O)O[C@H](c2ccccc2)C(C)N1C(C)C (stereo not given in full) | > 100 µM (inactive) | – | > 100 | > 100 µM (inactive) | > 100 µM (inactive) | > 100 µM (inactive) | > 100 µM (inactive) | > 100 µM (inactive) | > 100 µM (inactive) | > 100 µM (inactive) | > 100 µM (inactive) | > 100 µM (inactive) | > 100 µM (inactive) | > 100 µM (inactive) | > 100 µM (inactive) | > 100 µM (inactive) | – | – | > 100 µM (inactive) | –
CC(NC(=O)C1CCC(=O)N1)C(=O)N1CCCC1C(N)=O (stereo not drawn) ([pGlu]-Ala-Pro-NH2; configuration not given here) | 31.5 µM (inactive) | > 100 µM (inactive) | > 100 | > 100 µM (inactive) | > 100 µM (inactive) | > 100 µM (inactive) | – | > 100 µM (inactive) | > 100 µM (inactive) | > 100 µM (inactive) | > 100 µM (inactive) | > 100 µM (inactive) | > 100 µM (inactive) | > 100 µM (inactive) | > 100 µM (inactive) | > 100 µM (inactive) | > 100 µM (inactive) | > 100 µM (inactive) | > 100 µM (inactive) | > 100 µM (inactive)
